Like-named read-outs stand apart in the source and are kept apart here.
Tests used:
skin of hairless mice = conditions: topical in acetone, once daily days 1 through 5, mean ±SD, range 0-21
From the text: This irritation is a direct result of activation of the RAR nuclear receptors. Analysis of retinoid topical irritation is also a highly reproducible method of determining in vivo retinoid potency. The SKH1-hrBR or hairless mouse provides a convenient animal model of topical irritation, since retinoid-induced skin flaking and abrasion can be readily scored by eye (Standeven et al., “Specific antagonist of retinoid toxicity in mice.” Toxicol. Appl. Pharmacol., 138:169-175, (1996); Thacher, et al., “Receptor specificity of retinoid-induced hyperplasia. Effect of RXR-selective agonists and correlation with topical irritation”. J. Pharm. Exp. Ther., 282:528-534, (1997)).
Female hairless mice (Crl:SKH1-hrBR), 5-7 weeks old, were obtained from Charles River Breeding Labs (Wilmington, Mass.). […]
The mice were weighed daily and the dorsal skin was graded daily using separate semi-quantitative scales to determine flaking and abrasion. […]
Flaking onset score (2) and average severity score (3) are summed and divided by two. […] Composite flaking scores are calculated for each individual animal in a group, averaged, and rounded to the nearest integer. […]
Abrasion onset score (5) and average severity score (6) are summed and divided by two. […] Composite abrasion scores are calculated for each individual animal in a group, averaged and rounded to the nearest integer. […]

[1] = molecular target: T1, P450RAI-1 stably transfected HeLa cells (Homo sapiens, UniProt O43174); assay: P450RAI-1 cell-based inhibitor assay; conditions: inhibition of all-trans-RA metabolism, [3H]-RA, 3 hours at 37° C.; read-out: P450RAI INHIBITION DATA INTACT HELA IC50
T1 construct: expressed in transfected cells; host or cells: HeLa cells, stably transfected, hygromycin selection
T1 sequence (O43174 1-497): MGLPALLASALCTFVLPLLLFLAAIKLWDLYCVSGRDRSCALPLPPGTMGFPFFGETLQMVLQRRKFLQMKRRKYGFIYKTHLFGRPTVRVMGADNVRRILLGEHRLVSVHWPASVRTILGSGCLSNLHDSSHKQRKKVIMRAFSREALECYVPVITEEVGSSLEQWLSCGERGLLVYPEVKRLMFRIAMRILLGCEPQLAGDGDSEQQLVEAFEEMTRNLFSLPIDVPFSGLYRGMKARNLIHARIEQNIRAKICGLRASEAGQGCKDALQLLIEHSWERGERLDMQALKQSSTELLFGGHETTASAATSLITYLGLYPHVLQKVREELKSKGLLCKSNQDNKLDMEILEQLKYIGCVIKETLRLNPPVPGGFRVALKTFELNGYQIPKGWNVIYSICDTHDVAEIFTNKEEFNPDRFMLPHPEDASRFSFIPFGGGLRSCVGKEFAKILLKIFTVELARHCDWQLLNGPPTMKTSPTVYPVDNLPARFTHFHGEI
Description: P450RAI-1 Cell-Based Inhibitor Assay:
P450RAI -1 stably transfected HeLa cells are maintained in […] tissue culture dishes in Modified Eagle's Medium (MEM) containing 10% Fetal Bovine Serum (FBS) and 100 μg/ml hygromycin. Exponentially growing cells are harvested by incubating in trypsin. Cells are then washed with 1× Phosphate Buffered Saline (PBS) and plated in a 48-well plate at 5×10^5 cells in 0.2 ml MEM medium containing 10% FBS and 0.05 μCi [^3H]-RA in the presence or absence of increasing concentrations of the test compounds. The compounds are diluted in 100% DMSO and then added in triplicate wells at either 10, 1 or 0.1 μM final concentration. As a positive control for RA metabolism inhibition, cells are also incubated with ketoconazole at 100, 10 and 1 μM. Cell are incubated for 3 hours at 37° C. […] The water soluble radioactivity is quantified using a β-scintillation counter. IC50 values represent the concentration of inhibitor required to inhibit all-trans-RA metabolism by 50 percent and are derived manually from log-transformed data.

RARα = molecular target: T2, RARα (Homo sapiens, UniProt P10276); assay: ligand binding assay, RARα; conditions: read-out: RAR α Kd
T2 sequence (P10276 1-462): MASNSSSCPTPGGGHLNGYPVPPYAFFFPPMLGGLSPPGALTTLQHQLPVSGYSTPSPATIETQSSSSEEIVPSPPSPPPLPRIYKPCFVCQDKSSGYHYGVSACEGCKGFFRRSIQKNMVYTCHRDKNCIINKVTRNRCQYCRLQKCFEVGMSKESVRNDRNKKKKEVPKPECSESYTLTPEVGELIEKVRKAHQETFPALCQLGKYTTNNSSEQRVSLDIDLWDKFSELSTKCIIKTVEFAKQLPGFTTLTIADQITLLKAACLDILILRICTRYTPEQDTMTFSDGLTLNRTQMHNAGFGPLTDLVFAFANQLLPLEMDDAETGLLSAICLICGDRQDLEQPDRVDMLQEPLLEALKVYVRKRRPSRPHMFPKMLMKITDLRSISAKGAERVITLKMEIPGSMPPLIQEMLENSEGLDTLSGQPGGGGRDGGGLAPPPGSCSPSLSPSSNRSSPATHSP
From the text: (§1) Assays described below measure the ability of a compound to bind to, and/or activate various retinoid receptor subtypes. When in these assays a compound binds to a given receptor subtype and activates the transcription of a reporter gene through that subtype, then the compound is considered an agonist of that receptor subtype. […] In the below described assays the ability of the compounds to bind to RAR60 , RAR62 , RARγ, RXR60 , RXR62 , and RXRγ receptors, and the ability or inability of the compounds to activate transcription of a reporter gene through these receptor subtypes can be tested.
A holoreceptor transactivation assay and a ligand binding assay which measure the antagonist/agonist like activity of the compounds of the invention, or their ability to bind to the several retinoid receptor subtypes, respectively, are described in published PCT Application No. WO WO93/11755 (particularly on pages 30-33 and 37-41) published on Jun. 24, 1993, the specification of which is also incorporated herein by reference. A detailed experimental procedure for holoreceptor transactivations has been described by Heyman et al. Cell 68,397-406, (1992); Allegretto et al. J. Biol. Chem. 268,26625-26633, and Mangelsdorf et al. The Retinoids: Biology, Chemistry and Medicine, pp 319-349, Raven Press Ltd., New York, which are expressly incorporated herein by reference. […]

RARβ = molecular target: T3, RARβ (Homo sapiens, UniProt P10826); assay: ligand binding assay, RARβ; conditions: read-out: RAR β Kd
T3 sequence (P10826 1-455): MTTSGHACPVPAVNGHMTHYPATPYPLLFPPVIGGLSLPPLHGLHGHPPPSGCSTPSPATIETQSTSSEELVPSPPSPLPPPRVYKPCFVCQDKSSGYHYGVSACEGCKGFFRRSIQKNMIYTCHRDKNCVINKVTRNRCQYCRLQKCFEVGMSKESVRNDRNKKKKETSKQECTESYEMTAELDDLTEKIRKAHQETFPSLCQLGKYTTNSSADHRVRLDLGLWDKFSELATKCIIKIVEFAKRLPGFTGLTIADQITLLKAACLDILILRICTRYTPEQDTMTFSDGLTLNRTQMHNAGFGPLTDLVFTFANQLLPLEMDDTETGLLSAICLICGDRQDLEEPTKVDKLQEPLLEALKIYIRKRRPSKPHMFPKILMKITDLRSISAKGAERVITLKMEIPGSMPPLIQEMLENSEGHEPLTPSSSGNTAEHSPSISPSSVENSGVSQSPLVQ
From the text: as §1
A holoreceptor transactivation assay and a ligand binding assay which measure the antagonist/agonist like activity of the compounds of the invention, or their ability to bind to the several retinoid receptor subtypes, respectively, are described in published PCT Application No. WO WO93/11755 (particularly on pages 30-33 and 37-41) published on Jun. 24, 1993, the specification of which is also incorporated herein by reference. […] The results obtained in this assay are expressed in EC50 numbers, as they are also in the chimeric receptor transactivation assay. The results of ligand binding assay are expressed in Kd numbers. (See Cheng et al. Biochemical Pharmacology Vol. 22 pp 3099-3108, expressly incorporated herein by reference.)

Row | IC50 [1] [µM] | Kd (RARα) [µM] | Kd (RARβ) [µM] | SMILES | Cutaneous Toxicity Score (Blackjack Score) (skin of hairless mice; 100 nmole (nmol/25 g)) | Cutaneous Toxicity Score (Blackjack Score) (skin of hairless mice; 1000 nmole (nmol/25 g))
1 |  |  |  | CC1(C)CCC(=O)c2ccc(C#Cc3ccc(CC(=O)O)c(F)c3)cc21 [Compound 15, [2-Fluoro-4-(8.8-dimethyl-5-oxo-5,6,7,8-tetrahydro-naphthalene-2-yl-ethynyl)phenyl]-acetic acid] | 1 ± 1 | 5 ± 2
2 | 0.18 | > 10 | > 100 | Cc1cc(C#Cc2ccc(CC(=O)O)cc2)ccc1Cn1ccnc1 [Compound 121, [4-(4-Imidazol-1-yl-methyl-3-methyl-phenylethynyl)-phenyl]-acetic acid] |  | 

Source: patent US20020160986A1, “Compounds having activity as inhibitors of cytochrome P450RAI” (priority 2000, published 2002)
